Tested on: C57B1/6J mice
Test: Size and number of pancreatic islets after vATPase inhibitors
Assay type: in vivo
Conditions: for No. islets per mm^2 pancreas section / Median size: day 84, 5 daily doses of 12 ng/g body weight; for effect on islet number and size: i.p. 12 ng/gram body weight; for Median size: insulin-positive islets
Protocol: The effect of vATPase inhibitors on the size and number of pancreatic islets was analysed in C57B1/6J using either bafilomycin A1 (BA1) or concanamycin A (CMA). The effect of Streptozotocin, an islet beta-cell specific toxin produced by Streptomyces achromogenes was also examined, to enable comparison with the effect of vATPase inhibitors.
Groups of 4 female C57B1/6J mice were injected with 5 doses on 5 consecutive days of 12 ng/g body weight BA1, CMA or the well characterised islet β-cell toxin streptozotocin. Pancreases were removed on day 84 and 3 formalin-fixed sections per mouse were immunostained for insulin. The area of insulin-positive islets was measured on digital images using MCID software.

Structure (SMILES) | No. islets per mm^2 pancreas section | effect on islet number and size | Median size
CN(N=O)C(=O)N[C@H]1C(O)O[C@H](CO)[C@@H](O)[C@@H]1O (mixture of isomers) [Streptozotocin] | 0.46 per mm^2 pancreas section | reduces the number of islets but does not induce the formation of new islets | 5890 μm^2
C/C=C/[C@H]1O[C@@](O)([C@@H](C)[C@H](O)[C@H](C)[C@H]2OC(=O)/C(OC)=C/C(C)=C/[C@@H](C)[C@@H](O)[C@@H](CC)[C@@H](O)[C@H](C)C/C(C)=C/C=C/[C@@H]2OC)C[C@@H](O[C@H]2C[C@@H](O)[C@H](OC(N)=O)[C@@H](C)O2)[C@@H]1C [CMA, concanamycin A] | 0.78 per mm^2 pancreas section | increased the number of small islets | 3170 μm^2

Source: US20050132448A1, “Assay for beta cell toxic macrolides” (priority 2001, published 2005)
